From patent US10231954B2, “Neurodegenerative therapies” (LYTIX BIOPHARMA AS, priority 2014, dated 2019)

Key:
Assay type in all cases: biochemical
PIM2 = PIM2 (Homo sapiens, UniProt Q9P1W9); experiment: Kinase profiling PIM2; settings: 100 micromolar inhibitor concentration, 100 is no change; for remaining activity at 100 µM: read-out: residual kinase activity, PIM2
Text: (§1) Any value less that 25 is considered to be highly significant inhibition.

CSK = CSK (Homo sapiens, UniProt P41240); experiment: Kinase profiling CSK; settings: 100 micromolar inhibitor concentration, 100 is no change; for remaining activity at 100 µM: read-out: residual kinase activity, CSK
Text: as §1

MNK1 = MNK1 (Homo sapiens, UniProt Q9BUB5); experiment: Kinase profiling MNK1; settings: 100 micromolar inhibitor concentration, 100 is no change; for remaining activity at 100 µM: read-out: residual kinase activity, MNK1
Text: as §1

BRSK2 = molecular target: T1, BRSK2 (Homo sapiens, UniProt Q8IWQ3); experiment: Kinase profiling BRSK2; settings: 100 micromolar inhibitor concentration, 100 is no change; for remaining activity at 100 µM: read-out: residual kinase activity, BRSK2
T1 sequence (Q8IWQ3 1-736): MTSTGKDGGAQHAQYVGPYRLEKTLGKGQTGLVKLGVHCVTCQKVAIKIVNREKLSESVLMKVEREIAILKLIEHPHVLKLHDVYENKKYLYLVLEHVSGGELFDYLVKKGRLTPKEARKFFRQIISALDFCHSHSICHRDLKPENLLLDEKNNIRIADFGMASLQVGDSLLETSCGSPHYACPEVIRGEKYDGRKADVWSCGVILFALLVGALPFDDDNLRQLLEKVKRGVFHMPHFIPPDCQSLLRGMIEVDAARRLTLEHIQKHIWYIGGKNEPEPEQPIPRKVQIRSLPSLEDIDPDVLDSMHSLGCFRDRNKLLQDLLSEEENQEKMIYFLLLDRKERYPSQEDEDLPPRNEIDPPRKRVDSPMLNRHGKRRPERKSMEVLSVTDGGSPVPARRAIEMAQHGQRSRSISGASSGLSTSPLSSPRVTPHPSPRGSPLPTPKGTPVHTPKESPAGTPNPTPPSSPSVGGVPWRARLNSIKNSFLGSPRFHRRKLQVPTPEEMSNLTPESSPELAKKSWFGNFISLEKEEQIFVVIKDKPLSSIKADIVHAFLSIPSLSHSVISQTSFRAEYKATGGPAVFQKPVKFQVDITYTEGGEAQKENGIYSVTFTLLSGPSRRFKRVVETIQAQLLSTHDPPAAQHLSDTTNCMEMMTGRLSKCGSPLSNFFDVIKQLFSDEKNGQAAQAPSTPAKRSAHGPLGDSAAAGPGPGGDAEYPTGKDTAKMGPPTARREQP
Text: as §1

SIK2 = SIK2 (Homo sapiens, UniProt Q9H0K1); experiment: Kinase profiling SIK2; settings: 100 micromolar inhibitor concentration, 100 is no change; for remaining activity at 100 µM: read-out: residual kinase activity, SIK2
Text: as §1

MARK2 = MARK2 (Homo sapiens, UniProt Q7KZI7); experiment: Kinase profiling MARK2; settings: 100 micromolar inhibitor concentration, 100 is no change; for remaining activity at 100 µM: read-out: residual kinase activity, MARK2
Text: as §1

EPH-B3 = molecular target: T2, EPH-B3 (Homo sapiens, UniProt P54753); experiment: Kinase profiling EPH-B3; settings: 100 micromolar inhibitor concentration, 100 is no change; for remaining activity at 100 µM: read-out: residual kinase activity, EPH-B3
T2 sequence (P54753 34-998): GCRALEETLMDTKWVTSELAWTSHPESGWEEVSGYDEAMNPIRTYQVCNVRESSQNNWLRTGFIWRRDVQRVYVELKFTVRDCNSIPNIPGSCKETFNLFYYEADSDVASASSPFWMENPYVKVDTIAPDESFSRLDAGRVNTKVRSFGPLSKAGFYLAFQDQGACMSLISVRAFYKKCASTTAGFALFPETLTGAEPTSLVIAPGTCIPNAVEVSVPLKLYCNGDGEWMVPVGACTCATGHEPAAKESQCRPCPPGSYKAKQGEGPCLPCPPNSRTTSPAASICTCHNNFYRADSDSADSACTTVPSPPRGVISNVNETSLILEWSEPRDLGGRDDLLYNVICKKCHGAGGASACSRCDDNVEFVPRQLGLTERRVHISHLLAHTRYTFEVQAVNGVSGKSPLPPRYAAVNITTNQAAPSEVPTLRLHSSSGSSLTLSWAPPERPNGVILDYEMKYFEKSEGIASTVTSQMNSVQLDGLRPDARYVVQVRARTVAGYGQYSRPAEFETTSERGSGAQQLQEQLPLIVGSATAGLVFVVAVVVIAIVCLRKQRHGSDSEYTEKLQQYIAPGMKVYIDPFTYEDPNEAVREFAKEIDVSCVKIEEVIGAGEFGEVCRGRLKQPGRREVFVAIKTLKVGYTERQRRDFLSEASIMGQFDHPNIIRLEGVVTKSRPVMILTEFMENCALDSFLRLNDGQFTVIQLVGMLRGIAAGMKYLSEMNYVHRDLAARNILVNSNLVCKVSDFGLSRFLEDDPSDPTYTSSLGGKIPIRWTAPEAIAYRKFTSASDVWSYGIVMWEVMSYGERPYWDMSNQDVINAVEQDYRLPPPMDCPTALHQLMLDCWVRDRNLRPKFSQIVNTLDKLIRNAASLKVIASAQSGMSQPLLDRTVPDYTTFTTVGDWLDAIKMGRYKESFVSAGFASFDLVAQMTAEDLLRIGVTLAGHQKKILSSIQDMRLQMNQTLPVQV
Text: as §1

BRK = BRK (Homo sapiens, UniProt Q13882); experiment: Kinase profiling BRK; settings: 100 micromolar inhibitor concentration, 100 is no change; for remaining activity at 100 µM: read-out: residual kinase activity, BRK
Text: as §1

HIPK3 = HIPK3 (Homo sapiens, UniProt Q9H422); experiment: Kinase profiling HIPK3; settings: 100 micromolar inhibitor concentration, 100 is no change; for remaining activity at 100 µM: read-out: residual kinase activity, HIPK3
Text: as §1

MLK1 = MLK1 (Homo sapiens, UniProt P80192); experiment: Kinase profiling MLK1; settings: 100 micromolar inhibitor concentration, 100 is no change; for remaining activity at 100 µM: read-out: residual kinase activity, MLK1
Text: as §1

PAK5 = PAK5 (Homo sapiens, UniProt Q9P286); experiment: Kinase profiling PAK5; settings: 100 micromolar inhibitor concentration, 100 is no change; for remaining activity at 100 µM: read-out: residual kinase activity, PAK5
Text: as §1

MAPKAP-K2 = MAPKAP-K2 (Homo sapiens, UniProt P49137); experiment: Kinase profiling MAPKAP-K2; settings: 100 micromolar inhibitor concentration, 100 is no change; for remaining activity at 100 µM: read-out: residual kinase activity, MAPKAP-K2
Text: as §1

MNK2 = MNK2 (Homo sapiens, UniProt Q9HBH9); experiment: Kinase profiling MNK2; settings: 100 micromolar inhibitor concentration, 100 is no change; for remaining activity at 100 µM: read-out: residual kinase activity, MNK2
Text: as §1

PAK2 = PAK2 (Homo sapiens, UniProt Q13177); experiment: Kinase profiling PAK2; settings: 100 micromolar inhibitor concentration, 100 is no change; for remaining activity at 100 µM: read-out: residual kinase activity, PAK2
Text: as §1

Chain of MNK2 (Q9HBH9 whole entry, species assumed): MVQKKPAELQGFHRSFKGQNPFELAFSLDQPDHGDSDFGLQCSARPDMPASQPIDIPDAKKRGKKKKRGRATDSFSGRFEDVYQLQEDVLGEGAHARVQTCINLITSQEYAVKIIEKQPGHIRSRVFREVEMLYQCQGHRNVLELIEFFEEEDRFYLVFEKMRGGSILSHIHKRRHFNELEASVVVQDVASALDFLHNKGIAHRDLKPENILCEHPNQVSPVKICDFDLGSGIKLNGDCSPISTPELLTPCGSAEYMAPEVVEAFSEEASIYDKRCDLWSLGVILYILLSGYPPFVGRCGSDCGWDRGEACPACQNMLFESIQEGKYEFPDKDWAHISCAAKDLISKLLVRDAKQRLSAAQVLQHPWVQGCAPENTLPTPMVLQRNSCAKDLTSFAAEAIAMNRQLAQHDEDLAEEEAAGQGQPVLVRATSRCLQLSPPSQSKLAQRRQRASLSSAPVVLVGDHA
Chain of SIK2 (Q9H0K1 whole entry, species assumed): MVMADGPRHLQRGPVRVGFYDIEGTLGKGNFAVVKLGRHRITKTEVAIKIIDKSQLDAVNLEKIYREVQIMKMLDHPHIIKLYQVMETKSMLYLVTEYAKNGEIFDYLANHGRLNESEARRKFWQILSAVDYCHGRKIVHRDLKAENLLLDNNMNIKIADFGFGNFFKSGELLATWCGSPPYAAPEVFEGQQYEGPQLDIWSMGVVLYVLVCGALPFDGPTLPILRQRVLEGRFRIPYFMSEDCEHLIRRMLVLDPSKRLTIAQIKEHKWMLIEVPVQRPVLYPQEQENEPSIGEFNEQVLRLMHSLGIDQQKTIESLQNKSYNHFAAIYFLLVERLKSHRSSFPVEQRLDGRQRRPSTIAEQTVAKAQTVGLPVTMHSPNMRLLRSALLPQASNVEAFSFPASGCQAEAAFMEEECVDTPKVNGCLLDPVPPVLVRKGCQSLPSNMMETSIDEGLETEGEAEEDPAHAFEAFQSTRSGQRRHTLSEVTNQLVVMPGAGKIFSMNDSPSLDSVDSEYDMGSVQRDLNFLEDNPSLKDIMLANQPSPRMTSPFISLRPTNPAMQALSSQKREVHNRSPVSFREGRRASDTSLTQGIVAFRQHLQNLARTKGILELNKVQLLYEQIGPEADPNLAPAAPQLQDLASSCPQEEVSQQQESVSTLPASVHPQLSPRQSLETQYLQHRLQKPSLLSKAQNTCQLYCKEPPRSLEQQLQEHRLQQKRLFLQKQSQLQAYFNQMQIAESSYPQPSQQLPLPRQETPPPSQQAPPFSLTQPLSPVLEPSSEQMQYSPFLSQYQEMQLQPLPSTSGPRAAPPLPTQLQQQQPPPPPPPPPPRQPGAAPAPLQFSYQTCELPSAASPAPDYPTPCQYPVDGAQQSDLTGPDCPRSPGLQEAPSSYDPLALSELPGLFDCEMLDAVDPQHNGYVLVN
Chain of HIPK3 (Q9H422 whole entry, species assumed): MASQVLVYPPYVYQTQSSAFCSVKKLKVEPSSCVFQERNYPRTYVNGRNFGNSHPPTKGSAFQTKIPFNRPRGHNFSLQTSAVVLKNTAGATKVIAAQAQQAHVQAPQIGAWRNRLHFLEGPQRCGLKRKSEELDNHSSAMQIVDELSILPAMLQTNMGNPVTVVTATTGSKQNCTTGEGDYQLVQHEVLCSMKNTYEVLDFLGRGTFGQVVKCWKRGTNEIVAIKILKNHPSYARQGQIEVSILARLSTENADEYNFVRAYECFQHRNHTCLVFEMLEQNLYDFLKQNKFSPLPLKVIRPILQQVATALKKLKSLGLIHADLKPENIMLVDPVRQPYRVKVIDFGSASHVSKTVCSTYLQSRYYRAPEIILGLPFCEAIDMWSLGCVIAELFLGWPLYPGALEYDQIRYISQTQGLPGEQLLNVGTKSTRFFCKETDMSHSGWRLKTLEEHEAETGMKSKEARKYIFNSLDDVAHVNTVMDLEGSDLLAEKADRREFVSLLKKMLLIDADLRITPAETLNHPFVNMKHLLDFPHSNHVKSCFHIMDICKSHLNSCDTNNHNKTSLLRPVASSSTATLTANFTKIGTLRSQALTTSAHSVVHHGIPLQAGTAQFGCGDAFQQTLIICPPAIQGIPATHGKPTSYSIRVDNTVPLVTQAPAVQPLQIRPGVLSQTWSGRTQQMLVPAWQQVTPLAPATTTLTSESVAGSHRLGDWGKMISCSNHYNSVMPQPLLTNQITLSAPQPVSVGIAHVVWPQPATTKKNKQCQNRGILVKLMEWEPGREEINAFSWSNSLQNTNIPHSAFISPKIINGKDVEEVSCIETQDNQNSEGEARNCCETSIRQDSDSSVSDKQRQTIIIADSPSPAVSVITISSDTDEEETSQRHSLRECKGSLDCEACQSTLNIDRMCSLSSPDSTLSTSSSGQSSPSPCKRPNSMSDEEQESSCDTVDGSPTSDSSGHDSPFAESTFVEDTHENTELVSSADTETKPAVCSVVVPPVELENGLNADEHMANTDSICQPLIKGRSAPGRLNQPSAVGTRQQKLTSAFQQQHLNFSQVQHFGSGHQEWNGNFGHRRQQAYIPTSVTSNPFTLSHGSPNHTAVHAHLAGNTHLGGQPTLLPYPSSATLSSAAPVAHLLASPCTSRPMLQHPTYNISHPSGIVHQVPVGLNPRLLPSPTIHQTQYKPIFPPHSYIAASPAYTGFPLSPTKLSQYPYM
Chain of CSK (P41240 whole entry, species assumed): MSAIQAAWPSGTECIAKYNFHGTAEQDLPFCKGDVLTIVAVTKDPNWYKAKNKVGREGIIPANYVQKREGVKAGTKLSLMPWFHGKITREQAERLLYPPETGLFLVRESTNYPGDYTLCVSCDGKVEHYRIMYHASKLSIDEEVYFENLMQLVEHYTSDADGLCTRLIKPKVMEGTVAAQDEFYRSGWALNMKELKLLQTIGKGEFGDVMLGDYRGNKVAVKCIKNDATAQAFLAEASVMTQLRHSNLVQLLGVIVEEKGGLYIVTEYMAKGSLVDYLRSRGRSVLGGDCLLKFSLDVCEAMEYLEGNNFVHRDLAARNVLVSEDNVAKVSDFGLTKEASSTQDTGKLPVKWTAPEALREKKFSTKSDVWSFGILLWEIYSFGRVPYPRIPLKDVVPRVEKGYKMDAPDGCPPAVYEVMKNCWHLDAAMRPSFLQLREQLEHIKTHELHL
Chain of PAK5 (Q9P286 whole entry): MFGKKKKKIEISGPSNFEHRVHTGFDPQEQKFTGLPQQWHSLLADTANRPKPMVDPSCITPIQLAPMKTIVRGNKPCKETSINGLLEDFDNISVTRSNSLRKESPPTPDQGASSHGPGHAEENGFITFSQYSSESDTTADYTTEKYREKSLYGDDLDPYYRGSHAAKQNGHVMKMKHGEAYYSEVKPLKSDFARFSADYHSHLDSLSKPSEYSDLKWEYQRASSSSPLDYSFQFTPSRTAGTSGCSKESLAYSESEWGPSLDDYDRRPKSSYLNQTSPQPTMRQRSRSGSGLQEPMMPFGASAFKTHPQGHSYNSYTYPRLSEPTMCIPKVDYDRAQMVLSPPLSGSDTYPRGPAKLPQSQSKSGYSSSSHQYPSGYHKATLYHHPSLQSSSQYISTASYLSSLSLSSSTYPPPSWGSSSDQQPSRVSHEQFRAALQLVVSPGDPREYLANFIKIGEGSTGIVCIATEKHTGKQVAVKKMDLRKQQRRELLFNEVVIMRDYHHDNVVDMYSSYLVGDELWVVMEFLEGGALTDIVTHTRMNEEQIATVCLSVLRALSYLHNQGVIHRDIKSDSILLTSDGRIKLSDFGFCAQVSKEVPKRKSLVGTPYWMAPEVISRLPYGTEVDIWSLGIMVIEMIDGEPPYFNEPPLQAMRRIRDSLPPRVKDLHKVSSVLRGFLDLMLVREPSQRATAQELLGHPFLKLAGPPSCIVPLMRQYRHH
Chain of MARK2 (Q7KZI7 whole entry, species assumed): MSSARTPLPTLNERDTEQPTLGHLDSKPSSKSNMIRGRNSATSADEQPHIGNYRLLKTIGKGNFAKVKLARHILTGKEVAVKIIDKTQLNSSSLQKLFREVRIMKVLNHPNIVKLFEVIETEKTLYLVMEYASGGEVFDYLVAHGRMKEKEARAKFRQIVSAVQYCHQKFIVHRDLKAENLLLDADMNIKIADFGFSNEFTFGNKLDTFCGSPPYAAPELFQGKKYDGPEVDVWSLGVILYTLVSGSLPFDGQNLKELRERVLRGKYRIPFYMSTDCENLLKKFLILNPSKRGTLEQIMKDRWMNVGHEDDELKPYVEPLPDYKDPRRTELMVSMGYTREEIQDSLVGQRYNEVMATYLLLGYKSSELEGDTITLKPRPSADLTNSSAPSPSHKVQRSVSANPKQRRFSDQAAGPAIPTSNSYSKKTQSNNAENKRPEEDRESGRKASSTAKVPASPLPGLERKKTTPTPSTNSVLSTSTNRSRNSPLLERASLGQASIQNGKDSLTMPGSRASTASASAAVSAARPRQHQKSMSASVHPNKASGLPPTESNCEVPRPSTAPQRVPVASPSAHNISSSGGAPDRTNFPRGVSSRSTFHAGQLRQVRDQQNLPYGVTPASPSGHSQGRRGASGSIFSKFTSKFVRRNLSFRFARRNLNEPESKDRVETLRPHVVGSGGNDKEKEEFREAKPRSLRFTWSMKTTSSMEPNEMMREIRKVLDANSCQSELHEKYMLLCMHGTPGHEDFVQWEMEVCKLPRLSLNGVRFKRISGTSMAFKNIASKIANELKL
Chain of MNK1 (Q9BUB5 whole entry, species assumed): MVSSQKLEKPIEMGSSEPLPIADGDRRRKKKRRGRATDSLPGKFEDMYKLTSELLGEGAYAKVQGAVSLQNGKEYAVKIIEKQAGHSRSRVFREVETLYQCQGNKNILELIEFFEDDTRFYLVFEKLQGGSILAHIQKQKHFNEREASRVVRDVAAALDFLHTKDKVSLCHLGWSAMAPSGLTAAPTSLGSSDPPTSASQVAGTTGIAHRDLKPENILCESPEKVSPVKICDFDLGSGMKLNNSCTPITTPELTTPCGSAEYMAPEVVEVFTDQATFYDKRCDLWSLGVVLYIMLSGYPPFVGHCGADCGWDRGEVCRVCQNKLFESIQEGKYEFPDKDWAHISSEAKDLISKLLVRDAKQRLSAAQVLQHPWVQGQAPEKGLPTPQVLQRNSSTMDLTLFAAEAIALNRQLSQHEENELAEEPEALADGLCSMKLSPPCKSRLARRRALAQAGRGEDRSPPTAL

O=C(Nc1nc2cc(O)ccc2s1)c1ccccn1 [Compound 03-13]
residual kinase activity, PIM2 (PIM2): 77 | residual kinase activity, CSK (CSK): 95 | residual kinase activity, MNK1 (MNK1): 100 | residual kinase activity, BRSK2 (BRSK2): 80 | residual kinase activity, SIK2 (SIK2): 96 | residual kinase activity, MARK2 (MARK2): 84 | residual kinase activity, EPH-B3 (EPH-B3): 44 | residual kinase activity, BRK (BRK): 94 | residual kinase activity, HIPK3 (HIPK3): 82 | residual kinase activity, MLK1 (MLK1): 68 | residual kinase activity, PAK5 (PAK5): 82 | residual kinase activity, MAPKAP-K2 (MAPKAP-K2): 98 | residual kinase activity, MNK2 (MNK2): 66 | residual kinase activity, PAK2 (PAK2): 119

COc1ccc2sc(NC(C)=O)nc2c1 [Compound 03-21]
remaining activity at 100 µM (PIM2): 48% | remaining activity at 100 µM (CSK): 104% | remaining activity at 100 µM (MNK1): 77% | remaining activity at 100 µM (BRSK2): 95% | remaining activity at 100 µM (SIK2): 89% | remaining activity at 100 µM (MARK2): 103% | remaining activity at 100 µM (EPH-B3): 106% | remaining activity at 100 µM (BRK): 62% | remaining activity at 100 µM (HIPK3): 86% | remaining activity at 100 µM (MLK1): 84% | remaining activity at 100 µM (PAK5): 110% | remaining activity at 100 µM (MAPKAP-K2): 108% | remaining activity at 100 µM (MNK2): 84% | remaining activity at 100 µM (PAK2): 95%

CC(=O)Nc1nc2ccccc2s1 [Compound 03-32]
residual kinase activity, PIM2 (PIM2): 100 | residual kinase activity, CSK (CSK): 83 | residual kinase activity, MNK1 (MNK1): 89 | residual kinase activity, BRSK2 (BRSK2): 91 | residual kinase activity, SIK2 (SIK2): 81 | residual kinase activity, MARK2 (MARK2): 88 | residual kinase activity, EPH-B3 (EPH-B3): 71 | residual kinase activity, BRK (BRK): 89 | residual kinase activity, HIPK3 (HIPK3): 78 | residual kinase activity, MLK1 (MLK1): 72 | residual kinase activity, PAK5 (PAK5): 74 | residual kinase activity, MAPKAP-K2 (MAPKAP-K2): 102 | residual kinase activity, MNK2 (MNK2): 91 | residual kinase activity, PAK2 (PAK2): 90

O=C(Nc1nc2cc(O)ccc2s1)c1cccnc1 [Compound 03-33]
residual kinase activity, PIM2 (PIM2): 69 | residual kinase activity, CSK (CSK): 88 | residual kinase activity, MNK1 (MNK1): 21 | residual kinase activity, BRSK2 (BRSK2): 82 | residual kinase activity, SIK2 (SIK2): 69 | residual kinase activity, MARK2 (MARK2): 102 | residual kinase activity, EPH-B3 (EPH-B3): 108 | residual kinase activity, BRK (BRK): 46 | residual kinase activity, HIPK3 (HIPK3): 102 | residual kinase activity, MLK1 (MLK1): 61 | residual kinase activity, PAK5 (PAK5): 109 | residual kinase activity, MAPKAP-K2 (MAPKAP-K2): 109 | residual kinase activity, MNK2 (MNK2): 36 | residual kinase activity, PAK2 (PAK2): 114

O=C(Nc1nc2ccc(O)cc2s1)c1ccccc1 [Compound 03-60]
residual kinase activity, PIM2 (PIM2): 67 | residual kinase activity, CSK (CSK): 69 | residual kinase activity, MNK1 (MNK1): 18 | residual kinase activity, BRSK2 (BRSK2): 34 | residual kinase activity, SIK2 (SIK2): 26 | residual kinase activity, MARK2 (MARK2): 65 | residual kinase activity, EPH-B3 (EPH-B3): 93 | residual kinase activity, BRK (BRK): 14 | residual kinase activity, HIPK3 (HIPK3): 38 | residual kinase activity, MLK1 (MLK1): 5 | residual kinase activity, PAK5 (PAK5): 70 | residual kinase activity, MAPKAP-K2 (MAPKAP-K2): 59 | residual kinase activity, MNK2 (MNK2): 25 | residual kinase activity, PAK2 (PAK2): 94

CC(=O)Nc1nc2cc(C(F)(F)F)ccc2s1 [Compound 03-73]
remaining activity at 100 µM (PIM2): 63% | remaining activity at 100 µM (CSK): 91% | remaining activity at 100 µM (MNK1): 89% | remaining activity at 100 µM (BRSK2): 98% | remaining activity at 100 µM (SIK2): 91% | remaining activity at 100 µM (MARK2): 99% | remaining activity at 100 µM (EPH-B3): 114% | remaining activity at 100 µM (BRK): 106% | remaining activity at 100 µM (HIPK3): 106% | remaining activity at 100 µM (MLK1): 75% | remaining activity at 100 µM (PAK5): 85% | remaining activity at 100 µM (MAPKAP-K2): 114% | remaining activity at 100 µM (MNK2): 96% | remaining activity at 100 µM (PAK2): 85%

CC(=O)Nc1nc2cc(C)ccc2s1 [Compound 03-76]
residual kinase activity, PIM2 (PIM2): 82 | residual kinase activity, CSK (CSK): 101 | residual kinase activity, MNK1 (MNK1): 81 | residual kinase activity, BRSK2 (BRSK2): 79 | residual kinase activity, SIK2 (SIK2): 71 | residual kinase activity, MARK2 (MARK2): 97 | residual kinase activity, EPH-B3 (EPH-B3): 107 | residual kinase activity, BRK (BRK): 80 | residual kinase activity, HIPK3 (HIPK3): 79 | residual kinase activity, MLK1 (MLK1): 57 | residual kinase activity, PAK5 (PAK5): 107 | residual kinase activity, MAPKAP-K2 (MAPKAP-K2): 105 | residual kinase activity, MNK2 (MNK2): 81 | residual kinase activity, PAK2 (PAK2): 102
